Measurements published in patent US4322546A, “15-Deoxy-16-hydroxy-16-allenyl prostane derivatives of the E and F series” (American Cyanamid Company, priority 1980, dated 1982).

How the values were obtained:
Format in all cases: in vivo, Guinea-Pigs
[1] = test system: bronchospasms elicited by intravenous injections of acetylcholine; assay: bronchodilator activity, Konzett procedure, against acetylcholine-induced bronchospasm; details: Cavia porcellus; three logarithmic cumulative intravenous doses; spasmogen acetylcholine i.v.
Procedure: (§1) The bronchodilator activity for representative compounds of this invention was determined in Guinea-Pigs against bronchospasms elicited by intravenous injections of serotonin, histamine, and acetylcholine, by the Konzett procedure, the details of which are discussed by J. Lulling, P. Lievens, F. El Sayed and J. Prignot, Arzeimittel-Forschung 18, 995 (1968).
(§2) In the table which follows, bronchodilator activity for representative compounds of the invention against spasmogenic agents serotonin, histamine, and acetylcholine is expressed as an ED50 determined from the results obtained with three logarithmic cumulative intravenous doses.

[2] = test system: bronchospasms elicited by intravenous injections of histamine; assay: bronchodilator activity, Konzett procedure, against histamine-induced bronchospasm; details: Cavia porcellus; three logarithmic cumulative intravenous doses; spasmogen histamine i.v.
Procedure: as §1, §2

[3] = test system: bronchospasms elicited by intravenous injections of serotonin; assay: bronchodilator activity, Konzett procedure, against serotonin-induced bronchospasm; details: Cavia porcellus; three logarithmic cumulative intravenous doses; spasmogen serotonin i.v.
Procedure: as §1, §2

| Structure (SMILES) | ED50 [1] [µg/kg] | ED50 [2] [µg/kg] | ED50 [3] [µg/kg] |
| --- | --- | --- | --- |
| C=C=CC(O)(C/C=C/[C@H]1[C@H](O)CC(=O)[C@@H]1CCCCCCC(=O)O)CCCC (relative stereo) [dl 15-deoxy-16-hydroxy-16-allenyl-PGE1, dl-11α,16-dihydroxy-9-oxo-16-allenyl-13-trans prostenoic acid] | 1.2 | 1 | 1.05 |
| C=C=CC(O)(C/C=C/[C@H]1[C@H](O)CC(=O)[C@@H]1C/C=C\CCCC(=O)O)CCCC (relative stereo) [dl 15-deoxy-16-hydroxy-16-allenyl-PGE2, dl-11α,16-dihydroxy-9-oxo-16-allenyl-5-cis-13-trans prostadienoic acid] | 1.2 | 1 | 1.4 |
